These results are taken from patent US20240197760A1, “ACTIVATORS OF INTEGRATED STRESS RESPONSE PATHWAY FOR PROTECTION AGAINST FERROPTOSIS” (Burke Neurological Institute, priority 2021, published 2024).

The test system of the experiment is 5×FAD mice. In words: Intracerebroventricular Alzet pump infusion in 5×FAD and wild type mice: Bdnf, LTP, Y-maze, Morris water maze. In kind it is in vivo, mouse. An excerpt: All animal procedures were approved by the Weill Cornell Medicine Institutional Animal Care and Use Committee (Animal protocol: 2014-0029) and conducted in accordance with the NIH Guide for the Care and Use of Laboratory Animals and ARRIVE guidelines. We used C57/BL6 mice for the induction of ischemic stroke and hemorrhagic stroke. 8-10 weeks old female pregnant CD1 mice were used for primary neuronal culture. Ppp1R15b^flox/flox mice were obtained from Ann-Hwee Lee's group currently working at Regeneron and were bred at Burke Neurological Institute. The genotypes of Ppp1R15b^flox/flox mice were assessed with PCR using DNA isolated from clipped tails of mice. Twelve weeks old male Ppp1R15b^flox/flox mice were used for inactivation of R15b regulatory subunit of protein phosphatase 1 in the hippocampus through AAV8 GFP or Cre intracranial injection. In the current study, 5×FAD mouse was used as a model of AD as this model represents pathological characteristics seen in both genetic as well as sporadic forms of AD. 5×FAD mice (B6/SJL genetic background) was purchased from Jackson's laboratory and was maintained by breeding male heterozygous transgenic mice with wild type female mice. The 5×FAD mice express human APP and PSEN1 transgenes with a total of five AD-linked mutations: the Swedish (K670N/M671L), Florida (I716V), and London (V717I) mutations in APP, and the M146L and L286V mutations in PSEN1. In the current study, 6-7 months old 5×FAD mice were used for the Alzet mini osmotic pump implantation followed by memory assessment, LTP assessment, and gene expression studies.
Brains were quickly removed from mice sacrificed by cervical dislocation and placed in cold artificial cerebrospinal fluid (ACSF) (bubbled with 95% O2/5% CO2) containing (in mM): 124 NaCl, 4 KCl, 1 Na2HPO4, 25 NaHCO3, 2 CaCl2, 2 MgCl2, and 10 glucose. The pH and osmolarity of the solution were 7.4 and 310 mOsm/L, respectively. The hippocampus was isolated and placed on a mechanical tissue chopper to produce transverse hippocampal slices of 400 μm thickness. Slices were maintained in a humidified interface chamber at 29° C. and continuously perfused (˜1 mL/min) with 95% O2/5% CO2-bubbled ACSF. Hippocampal slices were allowed to recover for at least 90 min prior to beginning the experiment. For recordings, glass electrodes were filled with ACSF and positioned in the CA1 stratum radiatum to record fEPSPs evoked by local stimulation (0.1 ms) of Schaffer collateral fibers using a bipolar concentric electrode placed laterally to the recording electrode (˜150 μm). For LTP recordings, the voltage intensity of the stimulation test pulse (square pulse, 100 us duration) for each slice was determined to be the voltage intensity that had generated 30-40% of the maximum slope obtained using input-output relationships. Facilitation was calculated as the ratio of the slopes of the second and first fEPSPs, and plotted as a function of the inter-pulse duration. For LTP, a test pulse was applied every minute. Following a steady baseline of 15 min, potentiation was induced with either 100 Hz for 1 s (weak stimulation) or 3 theta-burst stimulations (TBS; 15 s interval), each one involving a single train of 10 bursts at 5 Hz, where each burst is composed of 4 pulses at 100 Hz (strong stimulation). The fEPSP slopes following tetanic stimulation were normalized to the average of the slopes of the fEPSPs acquired during the baseline. Residual potentiation was calculated as the average of the last 15 min of 2 h of recordings.
The sterile Alzet mini osmotic pumps (Durect, pump model 1004) were filled with 100 μl of either saline or 2-deoxyglucose (10 μg/μl) and were incubated in saline for 24 h to allow the osmotic release of the drug. Thereafter, the pumps were attached properly with the plastic tubing provided in the brain infusion kit 2 3-5 mm (Durect, catalog number 0008663). We made an intracerebroventricular groove stereotaxically in the mouse brain. […]

Where [1] appears, read: ICV Alzet pump, four weeks, wild type mice.
Setting [2] is: ICV Alzet pump, four weeks, versus wild type mice treated with saline.

Consider `OC[C@H]1OC(O)C[C@@H](O)[C@@H]1O` (stereo partly drawn) [2-DG, (4R,5S,6R)-6-(hydroxymethyl)oxane-2,4,5-triol], for which, under setting [1], the “Bdnf gene expression in wild type mice” value is “didn't lead to nootropic upregulation”, the “LTP in wild type mice” value was “didn't lead to nootropic upregulation”, the “Morris water maze task in wild type mice” value is “did not show any nootropic increase” and the “Y-maze task in wild type mice” value was “did not show any nootropic increase”. Further, under “ICV Alzet pump, four weeks, 5×FAD (saline) vs 5×FAD (2-DG) p=0.0194”, the “LTP in hippocampal slices from 5×FAD mice” value is “normalized”. Further, under setting [2], the “Bdnf gene expression in 5×FAD mice” value is listed as “normalized”; the “spatial long-term memory in Morris water maze, 5×FAD mice” value is “normalized these memories”; the “spatial short-term memory, spontaneous alternation test in Y-maze, 5×FAD mice” value is “normalized these memories”. Also, the “driving the adaptive plasticity program” value (intracerebroventricular infusion at 1 g/Kg/day) was “sufficient in driving the adaptive plasticity program”.
